Data taken from US20260209217A1, “CRYSTALLINE FORMS OF (S)-5-((3-(4-(4-FLUOROPHENYL)-1H-IMIDAZOL-2-YL)CHROMAN-6-YL)OXY)-3,4-DIHYDRO-1,8-NAPHTHYRIDIN-2(1H)-ONE” (Jazz Pharmaceuticals Ireland Limited, priority 2022, published 2026).
“Also recorded” adds a separate entry of the source. Each block holds one molecule with its values, some of them ahead of it.

What was measured:
Type in all cases: physicochemical
[1] = Solubility / in vitro dissolution in biorelevant media
Protocol: In vitro dissolution profiles were analyzed for Form A and Form F. In vitro drug dissolution and release testing can provide insight into a drug's in vivo performance such as bioavailability.
Because Forms A and F were selected for further pharmaceutical development, dissolution tests were performed on these forms. The tests were performed at different pH and in biorelevant media: hydrochloric acid (HCl), fasted state simulated gastric fluid (FaSSGF), fasted state simulated intestinal fluid (FaSSIF), and fed state simulated intestinal fluid (FeSSIF) (75 rpm, 900 mL). Three 10 mg and 50 mg capsules were analyzed as shown below in Table 18. The capsules include those including only Form A, 90% Form A spiked with 10% of Form F, and Form F. The results are shown in FIGS. 14A-14C (10 mg capsules) and FIGS. 15A-15C (50 mg capsules).

[2] = Dynamic vapor sorption (DVS) isotherm analysis
Protocol: Approximately 10 mg of material was analyzed using an automated dynamic vapor sorption analyzer (Intrinsic/Advantage) at 25° C. Method 1 for anhydrate undergo humidity cycle of 40-0-95-0-40% RH with stage step of 10% RH during which mass change was recorded. Method 2 for hydrate undergo humidity cycle of 40-95-0-95-40% RH with stage step of 10% RH during which mass change we recorded. Equilibrium set up was 0.002 dm/dt (%/min). Minimum dm/dt stability during in 60 min and maximum dm/dt stability duration is 360 min.

[3] = Stability of crystalline forms as evidenced by DSC and TGA thermograms; conditions: relative to the other crystalline forms
Protocol: Approximately 1-2 mg of material was weighed into an aluminum DSC pan with a pin hold. The sample pan then placed on Differential Scanning Calorimetry (TA Discovery 2500) with protected nitrogen flow rate of 50 mL/min. The sample was heated at rate of 10° C./min from 30° C. to 250° C. during which heat flow was recorded.
Approximately 2 mg of material was weighed into an open aluminum pan and loaded into a simultaneous thermogravimetric/differential thermal analyzer (TG Discovery 5500) and held at room temperature. Nitrogen flow rate for balance was 10 mL/min and nitrogen flow rate for sample was 25 mL/min. The sample was then heated at a rate of 10° C./min from 30° C. to 300° C. during which time the change in sample weight was recorded.

[4] = DVS Cycle 1, target 40.0 % P/Po, 24.8° C.
[5] = DVS Cycle 1, target 50.0 % P/Po, 24.8° C.
[6] = DVS Cycle 1, target 60.0 % P/Po, 24.8° C.
[7] = DVS Cycle 1, target 70.0 % P/Po, 24.8° C.
[8] = DVS Cycle 1, target 80.0 % P/Po, 24.8° C.
[9] = DVS Cycle 1, target 90.0 % P/Po, 24.8° C.
[10] = DVS Cycle 1, target 95.0 % P/Po, 24.8° C.
[11] = DVS Cycle 2, target 40.0 % P/Po, 24.8° C.
[12] = DVS Cycle 2, target 50.0 % P/Po, 24.8° C.
[13] = DVS Cycle 2, target 60.0 % P/Po, 24.8° C.
[14] = DVS Cycle 2, target 70.0 % P/Po, 24.8° C.
[15] = DVS Cycle 2, target 80.0 % P/Po, 24.8° C.
[16] = DVS Cycle 2, target 90.0 % P/Po, 24.8° C.
[17] = DVS Cycle 2, target 95.0 % P/Po, 24.8° C.
[18] = DVS Cycle 1, target 0.0 % P/Po, 24.9° C.
[19] = DVS Cycle 1, target 10.0 % P/Po, 24.9° C.
[20] = DVS Cycle 1, target 20.0 % P/Po, 24.9° C.
[21] = DVS Cycle 1, target 30.0 % P/Po, 24.9° C.
[22] = DVS Cycle 1, target 40.0 % P/Po, 24.9° C.
[23] = DVS Cycle 2, target 0.0 % P/Po, 24.9° C.
[24] = DVS Cycle 2, target 10.0 % P/Po, 24.9° C.
[25] = DVS Cycle 2, target 20.0 % P/Po, 24.9° C.
[26] = DVS Cycle 2, target 30.0 % P/Po, 24.9° C.
[27] = DVS Cycle 2, target 40.0 % P/Po, 24.9° C.

solubility [1]: poorly soluble
Compound: O=C1CCc2c(Oc3ccc4c(c3)C[C@@H](c3nc(-c5ccc(F)cc5)c[nH]3)CO4)ccnc2N1 [Compound I, (S)-5-((3-(4-(4-fluorophenyl)-1H-imidazol-2-yl)chroman-6-yl)oxy)-3,4-dihydro-1,8-naphthyridin-2(1H)-one]

Change In Mass (%) - ref, Desorption ([2]; DVS Cycle 1, target 0.0 % P/Po, 24.8° C.): 0.002%
Change In Mass (%) - ref, Desorption ([2]; DVS Cycle 1, target 10.0 % P/Po, 24.8° C.): 0.350%
Change In Mass (%) - ref, Desorption ([2]; DVS Cycle 1, target 20.0 % P/Po, 24.8° C.): 0.941%
Change In Mass (%) - ref, Desorption ([2]; DVS Cycle 1, target 30.0 % P/Po, 24.8° C.): 3.649%
Change In Mass (%) - ref, Desorption [2, 4]: 4.700%
Change In Mass (%) - ref, Hysteresis [2, 4]: 0.077%
Change In Mass (%) - ref, Sorption [2, 4]: 4.623%
Change In Mass (%) - ref, Desorption [2, 5]: 5.395%
Change In Mass (%) - ref, Hysteresis [2, 5]: 0.283%
Change In Mass (%) - ref, Sorption [2, 5]: 5.112%
Change In Mass (%) - ref, Desorption [2, 6]: 5.814%
Change In Mass (%) - ref, Hysteresis [2, 6]: 0.339%
Change In Mass (%) - ref, Sorption [2, 6]: 5.475%
Change In Mass (%) - ref, Desorption [2, 7]: 6.213%
Change In Mass (%) - ref, Hysteresis [2, 7]: 0.368%
Change In Mass (%) - ref, Sorption [2, 7]: 5.845%
Change In Mass (%) - ref, Desorption [2, 8]: 6.535%
Change In Mass (%) - ref, Hysteresis [2, 8]: 0.341%
Change In Mass (%) - ref, Sorption [2, 8]: 6.194%
Change In Mass (%) - ref, Desorption [2, 9]: 6.824%
Change In Mass (%) - ref, Hysteresis [2, 9]: 0.230%
Change In Mass (%) - ref, Sorption [2, 9]: 6.594%
Change In Mass (%) - ref, Desorption [2, 10]: 6.838%
Change In Mass (%) - ref, Sorption [2, 10]: 6.838%
Change In Mass (%) - ref, Sorption ([2]; DVS Cycle 2, target 0.0 % P/Po, 24.8° C.): 0.002%
Change In Mass (%) - ref, Sorption ([2]; DVS Cycle 2, target 10.0 % P/Po, 24.8° C.): 0.312%
Change In Mass (%) - ref, Sorption ([2]; DVS Cycle 2, target 20.0 % P/Po, 24.8° C.): 0.853%
Change In Mass (%) - ref, Sorption ([2]; DVS Cycle 2, target 30.0 % P/Po, 24.8° C.): 3.253%
Change In Mass (%) - ref, Desorption [2, 11]: 4.601%
Change In Mass (%) - ref, Hysteresis [2, 11]: 0.375%
Change In Mass (%) - ref, Sorption [2, 11]: 4.225%
Change In Mass (%) - ref, Desorption [2, 12]: 5.295%
Change In Mass (%) - ref, Hysteresis [2, 12]: 0.495%
Change In Mass (%) - ref, Sorption [2, 12]: 4.800%
Change In Mass (%) - ref, Desorption [2, 13]: 5.715%
Change In Mass (%) - ref, Hysteresis [2, 13]: 0.466%
Change In Mass (%) - ref, Sorption [2, 13]: 5.248%
Change In Mass (%) - ref, Desorption [2, 14]: 6.129%
Change In Mass (%) - ref, Hysteresis [2, 14]: 0.423%
Change In Mass (%) - ref, Sorption [2, 14]: 5.706%
Change In Mass (%) - ref, Desorption [2, 15]: 6.446%
Change In Mass (%) - ref, Hysteresis [2, 15]: 0.324%
Change In Mass (%) - ref, Sorption [2, 15]: 6.122%
Change In Mass (%) - ref, Desorption [2, 16]: 6.737%
Change In Mass (%) - ref, Hysteresis [2, 16]: 0.201%
Change In Mass (%) - ref, Sorption [2, 16]: 6.536%
Change In Mass (%) - ref, Desorption [2, 17]: 6.745%
Change In Mass (%) - ref, Sorption [2, 17]: 6.745%
Compound: O=C1CCc2c(Oc3ccc4c(c3)C[C@@H](c3nc(-c5ccc(F)cc5)c[nH]3)CO4)ccnc2N1 [Form A, (S)-5-((3-(4-(4-fluorophenyl)-1H-imidazol-2-yl)chroman-6-yl)oxy)-3,4-dihydro-1,8-naphthyridin-2(1H)-one]
stability of the crystalline form [3]: high degree of crystallinity and stability; also recorded: increased stability

Change In Mass (%) - ref, Desorption [2, 18]: 0.006%
Change In Mass (%) - ref, Sorption [2, 18]: 0.006%
Change In Mass (%) - ref, Desorption [2, 19]: 0.301%
Change In Mass (%) - ref, Hysteresis [2, 19]: 0.128%
Change In Mass (%) - ref, Sorption [2, 19]: 0.173%
Change In Mass (%) - ref, Desorption [2, 20]: 0.458%
Change In Mass (%) - ref, Hysteresis [2, 20]: 0.134%
Change In Mass (%) - ref, Sorption [2, 20]: 0.324%
Change In Mass (%) - ref, Desorption [2, 21]: 0.566%
Change In Mass (%) - ref, Hysteresis [2, 21]: 0.111%
Change In Mass (%) - ref, Sorption [2, 21]: 0.455%
Change In Mass (%) - ref, Desorption [2, 22]: 0.649%
Change In Mass (%) - ref, Hysteresis [2, 22]: 0.075%
Change In Mass (%) - ref, Sorption [2, 22]: 0.574%
Change In Mass (%) - ref, Sorption ([2]; DVS Cycle 1, target 50.0 % P/Po, 24.9° C.): 0.690%
Change In Mass (%) - ref, Sorption ([2]; DVS Cycle 1, target 60.0 % P/Po, 24.9° C.): 0.813%
Change In Mass (%) - ref, Sorption ([2]; DVS Cycle 1, target 70.0 % P/Po, 24.9° C.): 0.964%
Change In Mass (%) - ref, Sorption ([2]; DVS Cycle 1, target 80.0 % P/Po, 24.9° C.): 1.160%
Change In Mass (%) - ref, Sorption ([2]; DVS Cycle 1, target 90.0 % P/Po, 24.9° C.): 1.601%
Change In Mass (%) - ref, Sorption ([2]; DVS Cycle 1, target 95.0 % P/Po, 24.9° C.): 1.911%
Change In Mass (%) - ref, Desorption [2, 23]: 0.156%
Change In Mass (%) - ref, Sorption [2, 23]: 0.156%
Change In Mass (%) - ref, Desorption [2, 24]: 0.718%
Change In Mass (%) - ref, Hysteresis [2, 24]: 0.355%
Change In Mass (%) - ref, Sorption [2, 24]: 0.363%
Change In Mass (%) - ref, Desorption [2, 25]: 1.060%
Change In Mass (%) - ref, Hysteresis [2, 25]: 0.495%
Change In Mass (%) - ref, Sorption [2, 25]: 0.565%
Change In Mass (%) - ref, Desorption [2, 26]: 1.291%
Change In Mass (%) - ref, Hysteresis [2, 26]: 0.539%
Change In Mass (%) - ref, Sorption [2, 26]: 0.752%
Change In Mass (%) - ref, Desorption [2, 27]: 1.459%
Change In Mass (%) - ref, Hysteresis [2, 27]: 0.532%
Change In Mass (%) - ref, Sorption [2, 27]: 0.927%
Change In Mass (%) - ref, Desorption ([2]; DVS Cycle 2, target 50.0 % P/Po, 24.9° C.): 1.595%
Change In Mass (%) - ref, Desorption ([2]; DVS Cycle 2, target 60.0 % P/Po, 24.9° C.): 1.711%
Change In Mass (%) - ref, Desorption ([2]; DVS Cycle 2, target 70.0 % P/Po, 24.9° C.): 1.813%
Change In Mass (%) - ref, Desorption ([2]; DVS Cycle 2, target 80.0 % P/Po, 24.9° C.): 1.901%
Change In Mass (%) - ref, Desorption ([2]; DVS Cycle 2, target 90.0 % P/Po, 24.9° C.): 1.964%
Change In Mass (%) - ref, Desorption ([2]; DVS Cycle 2, target 95.0 % P/Po, 24.9° C.): 1.911%
Compound: O=C1CCc2c(Oc3ccc4c(c3)C[C@@H](c3nc(-c5ccc(F)cc5)c[nH]3)CO4)ccnc2N1 [Form F, (S)-5-((3-(4-(4-fluorophenyl)-1H-imidazol-2-yl)chroman-6-yl)oxy)-3,4-dihydro-1,8-naphthyridin-2(1H)-one]
stability of the crystalline form [3]: high degree of crystallinity and stability; also recorded: increased stability
